Laboratory results published in US7452865B2, “Antagonistic analogs of GH RH (2003)” (The Administrare's of the Tulane Educational Fund, priority 2004, dated 2008).
Square brackets hold non-standard residues; d marks the D form. Peptide text beside a SMILES is read from it. * marks the point of attachment. Phe(4-Cl) = N[C@@H](Cc1ccc(Cl)cc1)C(=O)O; HOOC(CH2)6CO = O=C(O)CCCCCCC(=O)*; hArg = N=C(N)NCCCC[C@H](N)C(=O)O; Cit = NC(=O)NCCC[C@H](N)C(=O)O; Nle = CCCC[C@H](N)C(=O)O; Abu = CC[C@H](N)C(=O)O; PhAc = O=C(Cc1ccccc1)*

What was measured:
[1] = system: hGH-RH(1-29)NH2 induced GH release; experiment: Inhibition of GH release in superfused rat pituitary system; assay type: cell-based; settings: antagonist 30 nM; for GH response (% of control) 0 min: 1 nM hGH-RH(1-29)NH2 at 0 min; for GH response (% of control) 30 min: 1 nM hGH-RH(1-29)NH2 at 30 min; for GH response (% of control) 60 min: 1 nM hGH-RH(1-29)NH2 at 60 min; for GH response (% of control) 90 min: 1 nM hGH-RH(1-29)NH2 at 90 min
How it was run: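 Dispersed rat pituitary cells in superfusion were preincubated 9 min with analog at various concentrations, then stimulated with 1 nM hGH-RH(1-29)NH2 for 3 min, repeated at 30, 60, 90, 120 min to gauge duration. GH measured by double-antibody RIA; net integrated responses expressed as percent of the initial 1 nM GH-RH response.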

[2] = system: GH-RH receptor isoforms on membrane fractions of human PC-3 prostate tumors; assay type: binding; settings: for binding affinities to the tumoral receptors for GH-RH (in words): general statement
Excerpt: Ligand competition assays with ^125I-labeled GH-RH antagonist JV-1-42 were used to determine the binding affinities of GH-RH analogs to the GH-RH receptor isoforms on membrane fractions of human PC-3 prostate tumors. The methods used have been described in detail (Halmos G, Schally A V, Varga J L, Plonowski A, Rekasi Z, Czompoly T, Proc Natl Acad Sci USA 97: 10555-10560, 2000; Halmos G, Schally A V, Czompoly T, Krupa M, Varga J L, Rekasi Z, J Clin Endocrinol Metab 87: 4707-4714, 2002), hereby incorporated by reference. Briefly, radioiodinated derivatives of JV-142 are prepared by the chloramine-T method. PC-3 tumors, grown as xenografts in nude mice, are used to prepare crude membranes. PC-3 membrane homogenates are incubated with [^125I]JV-142 and increasing concentrations (10^−12 to 10^−6 M) of nonradioactive antagonist peptides as competitors. The pellet is separated by centrifugation and counted for radioactivity in a gamma-counter. The final binding affinities are estimated by K1 (dissociation constant of the inhibitor-receptor complex) and are determined by the Ligand PC and McPherson computer programs of Munson and Rodbard (P. J. Munson and D. Rodbard, Anal. Biochem. […]: 220-239, 1980). Relative affinities (R.A.) compared to reference peptides such as JV-1-36 or JV-1-38, are calculated as the ratio of K1 of the reference peptide to the K, of the tested GH-RH antagonist.

Relative Affinities (R.A.) to membrane receptors on PC-3 human prostate cancers [2]	Structure (SMILES)	GH response (% of control) 0 min [1]	GH response (% of control) 30 min [1]	GH response (% of control) 60 min [1]	GH response (% of control) 90 min [1]	binding affinities to the tumoral receptors for GH-RH (in words) [2]	GH response (% of control) 120 min ([1]; 1 nM hGH-RH(1-29)NH2 at 120 min)
	CCCC[C@H](NC(=O)[C@@H](NC(=O)[C@H](CC(=O)O)NC(=O)[C@H](CCC(N)=O)NC(=O)[C@H](CC(C)C)NC(=O)[C@H](CC(C)C)NC(=O)[C@H](CCCCN)NC(=O)[C@H](CCCNC(=N)N)NC(=O)[C@H](C)NC(=O)[C@H](CO)NC(=O)[C@H](CC(C)C)NC(=O)[C@H](CCC(N)=O)NC(=O)[C@H](CC)NC(=O)[C@H](CC(C)C)NC(=O)[C@@H](NC(=O)[C@H](CCCCN)NC(=O)[C@H](CCCNC(=N)N)NC(=O)[C@H](Cc1ccc(O)cc1)NC(=O)[C@H](CCCNC(N)=O)NC(=O)[C@H](CCCNC(N)=O)NC(=O)[C@@H](NC(=O)[C@H](Cc1ccc(Cl)cc1)NC(=O)[C@@H](NC(=O)[C@H](C)NC(=O)[C@H](CC(=O)O)NC(=O)[C@@H](CCCNC(=N)N)NC(=O)[C@H](Cc1ccc(O)cc1)NC(=O)Cc1ccccc1)[C@@H](C)CC)[C@@H](C)O)C(C)C)[C@@H](C)CC)C(=O)N[C@H](CCCNC(=N)N)C(=O)N[C@@H](CCCCNC(=N)N)C(N)=O [Peptide 22, [PhAc-Tyr^1, D-Arg^2, Phe(pCl)^6, Cit^8, Cit^9, Abu^15, Nle^27, D-Arg^28, Har^29]hGH-RH(1-29)NH2] (PhAc-Y[dR]DAI[Phe(4-Cl)]T[Cit][Cit]YRKVL[Abu]QLSARKLLQDI[Nle][dR][hArg]-NH2)	22 % of control	26 % of control	27 % of control	45 % of control	extremely high binding affinities	
4	CCCC[C@H](NC(=O)[C@@H](NC(=O)[C@H](CC(=O)O)NC(=O)[C@H](CCC(N)=O)NC(=O)[C@H](CC(C)C)NC(=O)[C@H](CC(C)C)NC(=O)[C@H](CCCCN)NC(=O)[C@H](CCCNC(=N)N)NC(=O)[C@H](C)NC(=O)[C@H](CO)NC(=O)[C@H](CC(C)C)NC(=O)[C@H](CCC(N)=O)NC(=O)[C@H](CC)NC(=O)[C@H](CC(C)C)NC(=O)[C@@H](NC(=O)[C@H](CCCCN)NC(=O)[C@H](CCCNC(=N)N)NC(=O)[C@H](Cc1ccc(O)cc1)NC(=O)[C@H](CCCNC(=N)N)NC(=O)[C@H](CC(N)=O)NC(=O)[C@@H](NC(=O)[C@H](Cc1ccc(Cl)cc1)NC(=O)[C@@H](NC(=O)[C@H](C)NC(=O)[C@H](CC(=O)O)NC(=O)[C@@H](CCCNC(=N)N)NC(=O)[C@H](Cc1ccc(O)cc1)NC(=O)CCCCCCC(=O)O)[C@@H](C)CC)[C@@H](C)O)C(C)C)[C@@H](C)CC)C(=O)N[C@H](CCCNC(=N)N)C(=O)N[C@@H](CCCCNC(=N)N)C(N)=O [Peptide 5, [HOOC(CH2)6CO-Tyr^1, D-Arg^2, Phe(pCl)^6, Arg^9, Abu^15, Nle^27, D-Arg^28, Har^29]hGH-RH(1-29)NH2] ({HOOC(CH2)6CO}-Y[dR]DAI[Phe(4-Cl)]TNRYRKVL[Abu]QLSARKLLQDI[Nle][dR][hArg]-NH2)	22 % of control	20 % of control	23 % of control	27 % of control	extremely high binding affinities	27 % of control
